Measured values taken from paper PMC2954059 (Journal of medicinal chemistry, 2010).
Where two headings read alike, the source gives them in different places. Marks after values point to notes of the source that are not given here.

What was measured:
[1] = Concentrations of 1 in mouse serum and tissue samples by LC-MS/MS; format: in vivo, C57BL/6 mice
[2] = format: in vivo, C57BL/6 mice; settings: 24 mg/kg subcutaneous; for Concentration in the mouse brain: N = 3; for Concentration observed in brain, in molar terms: mouse brain, the quantified mouse (4a 8 h, 4d 2 h)
[3] = target: T1, Calpain I from porcine erythrocytes (Sus scrofa, UniProt P35750); test: Calpain I inhibition, fluorogenic Suc-Leu-Tyr-AMC assay, Ki by Dixon plots
T1 sequence (P35750 1-714): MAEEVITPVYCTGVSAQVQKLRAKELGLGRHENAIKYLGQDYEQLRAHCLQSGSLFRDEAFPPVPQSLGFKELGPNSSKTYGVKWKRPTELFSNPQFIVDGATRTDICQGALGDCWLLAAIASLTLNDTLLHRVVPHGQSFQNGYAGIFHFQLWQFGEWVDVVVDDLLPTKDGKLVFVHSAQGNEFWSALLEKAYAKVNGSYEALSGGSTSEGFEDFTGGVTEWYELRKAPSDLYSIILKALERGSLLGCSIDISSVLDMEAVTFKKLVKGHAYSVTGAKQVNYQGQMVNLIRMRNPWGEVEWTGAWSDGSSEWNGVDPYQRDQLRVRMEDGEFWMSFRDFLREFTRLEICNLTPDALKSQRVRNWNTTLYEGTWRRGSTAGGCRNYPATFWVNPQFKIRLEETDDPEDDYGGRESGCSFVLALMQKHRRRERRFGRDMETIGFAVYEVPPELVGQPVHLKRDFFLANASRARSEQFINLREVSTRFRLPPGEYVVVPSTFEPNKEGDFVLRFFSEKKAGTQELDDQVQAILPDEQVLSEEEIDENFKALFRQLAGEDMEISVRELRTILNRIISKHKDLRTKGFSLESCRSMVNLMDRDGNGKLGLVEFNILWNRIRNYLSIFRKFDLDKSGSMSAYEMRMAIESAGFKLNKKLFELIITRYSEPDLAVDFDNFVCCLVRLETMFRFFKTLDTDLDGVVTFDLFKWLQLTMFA
T1 sequence (P04574 1-266 partner): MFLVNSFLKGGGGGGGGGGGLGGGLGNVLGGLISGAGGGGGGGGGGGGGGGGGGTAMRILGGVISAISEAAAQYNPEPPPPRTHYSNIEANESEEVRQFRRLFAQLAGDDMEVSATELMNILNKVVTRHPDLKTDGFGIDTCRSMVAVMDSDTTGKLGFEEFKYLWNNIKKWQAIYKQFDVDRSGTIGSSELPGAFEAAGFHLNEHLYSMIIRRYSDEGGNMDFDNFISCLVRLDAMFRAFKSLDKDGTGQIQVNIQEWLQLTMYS

[4] = target: T2, calpain II from porcine kidney (Sus scrofa, UniProt A6YNL5); test: Calpain II inhibition, fluorogenic Suc-Leu-Tyr-AMC assay, Ki by Dixon plots; format: biochemical; settings: selectivity calpain I over calpain II
T2 sequence (A6YNL5 20-700): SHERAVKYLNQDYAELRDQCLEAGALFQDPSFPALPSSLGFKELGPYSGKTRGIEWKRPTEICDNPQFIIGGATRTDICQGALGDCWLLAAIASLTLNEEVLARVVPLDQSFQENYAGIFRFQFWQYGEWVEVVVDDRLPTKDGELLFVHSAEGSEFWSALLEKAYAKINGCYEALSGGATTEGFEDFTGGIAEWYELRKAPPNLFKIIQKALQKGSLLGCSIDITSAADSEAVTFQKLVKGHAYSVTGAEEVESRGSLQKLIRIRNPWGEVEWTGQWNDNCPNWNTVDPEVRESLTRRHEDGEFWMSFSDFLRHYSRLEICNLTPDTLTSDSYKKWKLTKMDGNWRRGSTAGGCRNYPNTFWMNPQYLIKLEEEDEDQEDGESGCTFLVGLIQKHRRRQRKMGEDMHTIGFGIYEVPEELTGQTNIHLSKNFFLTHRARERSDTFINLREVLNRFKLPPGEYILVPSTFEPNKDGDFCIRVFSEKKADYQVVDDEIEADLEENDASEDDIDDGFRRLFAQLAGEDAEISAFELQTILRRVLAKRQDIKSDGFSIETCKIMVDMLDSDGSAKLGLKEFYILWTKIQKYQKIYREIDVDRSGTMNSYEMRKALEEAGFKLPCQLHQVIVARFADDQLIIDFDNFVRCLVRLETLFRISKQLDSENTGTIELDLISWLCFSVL
T2 sequence (P04574 1-266 partner): T1 sequence (P04574 1-266 partner)

[5] = target: Cathepsin B from human liver (Homo sapiens, UniProt P07858); test: Cathepsin B inhibition, fluorogenic Cbz-Arg-Arg-AMC assay, Ki by Dixon plots; format: biochemical

With `CCC(NC(=O)[C@H](CC(C)C)NC(=O)OCc1ccccc1)C(=O)C(=O)NCCCN1CCOCC1` (stereo partly drawn) [Compound 1, Cbz-Leu-D,L-Abu-CONH-(CH2)3-morpholine] the concentration at 1 h ([1]; female, C57BL/6, mouse, liver, heart, kidney, spleen, other: subcutaneous or intravenous, 24 mg/kg) was over 500 ng/g, the “Bioavailability via subcutaneous or oral administration” value ([1]; mice, 24 mg/kg) was “good” and the “Detection in the brain” value ([1]; mice, 24 mg/kg subcutaneous, intravenous or oral) was “could not be detected”.
For `CCC(NC(=O)[C@H](CC(C)C)NC(=O)OCc1ccccc1)C(=O)C(=O)NCCCn1cnc2c(N)ncnc21` (stereo partly drawn) [Compound 4a, 3-(Benzyloxycarbonyl-L-leucylamino)-N-(3-(6-amino-9H-purin-9-yl)propyl)-2-oxopentanamide], the “Concentration in the mouse brain” value ([2]; 8 hour, numeric value from one mouse, other two NQ) was 1.17 ± 0.01 ^b µg/g tissue and the “Concentration observed in brain, in molar terms” value [2] was “approximately 2 µM”.
For `CCC(NC(=O)[C@H](CC(C)C)NC(=O)OCc1ccccc1)C(=O)C(=O)NCCCn1ccc(N)nc1=O` (stereo partly drawn) [Compound 4c], the “fold less potent than the adenine derivatives” value [3] was 3- to 8 fold.
In the case of `CCC(NC(=O)[C@H](CC(C)C)NC(=O)OCc1ccccc1)C(=O)C(=O)NCCCN1CCN(C)CC1` (stereo partly drawn) [Compound 4d, 3-(Benzyloxycarbonyl-L-leucylamino)-N-(3-(4-methylpiperazin-1-yl)propyl)-2-oxopentanamide], the “Concentration in the mouse brain” value ([2]; 1 hour) is reported as “could be detected”, the “Concentration in the mouse brain” value ([2]; 2 hour, numeric value from one mouse, other two NQ) is reported as 1.14 ± 0.02 ^b µg/g tissue and the “Concentration observed in brain, in molar terms” value [2] is reported as “approximately 2 µM”.
With `COc1nc(N)c2ncn(CCCNC(=O)C(=O)C(Cc3ccccc3)NC(=O)[C@H](CC(C)C)NC(=O)OCc3ccccc3)c2n1` (stereo partly drawn) [Compound 5b, 3-(Benzyloxycarbonyl-L-leucylamino)-N-(3-(6-amino-2-methoxy-9H-purin-9-yl)propyl)-2-oxophenylbutanamide] the “fold less potent on calpain II than on calpain I” value [4] was 5 fold.
In the case of `CC(C)C[C@H](NC(=O)OCc1ccccc1)C(=O)NC(Cc1ccccc1)C(=O)C(=O)NCCCn1ccc(N)nc1=O` (stereo partly drawn) [Compound 5c], the “fold less potent than the adenine derivatives” value [3] is reported as 3- to 8 fold and the “selectivity for calpain I and calpain II versus cathepsin B” value (from here on “selectivity”) [5] is reported as “equally potent”.
In the case of `CC(C)C[C@H](NC(=O)OCc1ccccc1)C(=O)NC(Cc1ccccc1)C(=O)C(=O)NCCCN1CCN(C)CC1` (stereo partly drawn) [Compound 5d, 3-(Benzyloxycarbonyl-L-leucylamino)-N-(3-(4-methylpiperazin-1-yl)propyl)-2-oxophenylbutanamide], the “selectivity” value [5] is reported as “good selectivity”.
For `CC(C)C[C@H](NC(=O)OCc1ccccc1)C(=O)NC(Cc1ccccc1)C(=O)C(=O)NCCCN(C)C` (stereo partly drawn) [Compound 5e, 3-(Benzyloxycarbonyl-L-leucylamino)-N-(3-(dimethylamino)propyl)-2-oxophenylbutanamide], the “selectivity” value [5] was “good selectivity” and the “fold less potent on calpain II than on calpain I” value [4] was 3 fold.
